Laboratory results: ChEMBL document CHEMBL1150688, “Guieranone A, a naphthyl butenone from the leaves of Guiera senegalensis with antifungal activity” (2003)
Calls of active or inactive are those of the source. No cut-off for these calls is given here.

Test system: Cladosporium cucumerinum
Experiment: Antifungal activity against Cladosporium cucumerinum assessed as drug level causing inhibition of fungal growth after 2 days by TLC based bioautography
Type: functional

For `COc1cc(OC)c2c3c(c(OC)cc2c1)C(=O)CC(C)O3` (stereo not drawn), the Activity was “inactive”.

`C/C=C/C(=O)c1c(OC)cc2cc(OC)cc(OC)c2c1OC` [GUIERANONE A] gave an INH of 1 µg.

With `COc1cc(OC)c2c(c1)cc(OC)c1c(=O)cc(C)oc12` the Activity was “inactive”.
